Measurements: US8815306B2, “Methods and compositions for promoting bone and joint health” (Metaproteomics, LLC, priority 2007, dated 2014)
Structures can show the parent of a compound that is named as a salt. Where two headings read alike, the source gives them in different places.

Key:
[1] = test system: TNFα induced MMP-13 expression; assay: Synergy (Combinational Index) of THIAA and berberine on TNFα induced MMP-13 expression in SW1353; type: cell-based; settings: Homo sapiens
Method: The SW1353 human chondrocyte cell line was used as described in Example 1.
The human chondrocyte cell line, SW1353 were maintained and treatments conditions were described in Example 1. […]; 1:10; 5:1; 2:1; 1:1; 1:2; 1:5; 1:10; […].
Determination of MMP-13 expression—The MMP-13 levels in the medium was measured as described in Example 1.
Median effect calculations were performed using CalcuSyn (Biosoft, Ferguson, Mo.). […] A minimum of three concentrations were used to determine the dose-response curve and a median inhibitory concentration (IC50).
Synergy—Combinational Index (CI) values were measured using CalcuSyn (Biosoft, Ferguson, Mo.). […]

[2] = test system: TNFα induced MMP-13 expression; assay: TNFα induced MMP-13 expression in human chondrocyte cell line SW1353; settings: for TNFa Stimulated % Activity average (MMP-13 expression): Table 6; for TNFa Stimulated % Activity average (MMP-13 expression) / activity at 20 µg/mL / TNFa Stimulated MMP-13 n = 1 / TNFa Stimulated MMP-13 average / activity at 1 µg/mL / activity at 5 µg/mL / activity at 10 µg/mL: TNF pos = 100%; for activity at 20 µg/mL / activity at 1 µg/mL / activity at 5 µg/mL / activity at 10 µg/mL: SW1353, 24 h; for Dose dependence of inhibition of TNFα induced MMP-13 expression: Example 2, 20, 10, 5 and 1 ug/ml
Method: The SW1353 human chondrocyte cell line was used as described below.
Cells were grown and subcultured in 96-well plates at a density of 8×10^4 cells per well and allowed to reach ˜80% confluence overnight. Test compounds in medium were added to the cells at a final concentration of 0.1% DMSO. Following one hour of incubation with the test compounds, TNFα (10 ng/ml) or medium alone was added to the cell wells and incubation continued for 24 hours. The supernatant media was subsequently collected for MMP-13 determination.
Determination of MMP-13: A commercial, non-radioactive procedure for quantification of MMP-13 was used according to the manufacturer's instructions using MMP-13 as a standard. A minimum of 3 wells were used for each test condition.
The amount of MMP-13 release into the medium was determined by comparison of the MMP-13 generated in the presence or absence of TNFα and test compounds. A minimum of three wells were used for each test condition. The basal MMP-without 13 levels without TNFα stimulation was subtracted from TNF stimulation to determine the TNFα induced MMP-13 expression in the medium and the levels normalized to 100%. The percent activity of test compounds was measured in the presence of TNFα and referred as TNFα induced MMP-13 expression.

[3] = test system: sRANKL mediated TRAP activity (osteoclastogenesis), RAW 264.7; assay: sRANKL mediated osteoclastogenesis: TRAP activity in RAW 264.7 cells; settings: for % TRAP activity average (sRANKL induced TRAP activity): RAW 264.7 cells, sRANKL alone normalized to 100%; for activity at 5 µg/mL / activity at 10 µg/mL: Mus musculus, RAW264.7, read-out: % TRAP Activity average; for % TRAP Activity average: Table 8, RAW 264.7, sRANKL 50 ng/ml, RANKL = 100%
Method: Following overnight incubation with the test compounds, sRANKL (50 ng/ml) or medium alone was added to the cell wells. The medium was replaced after 2 days with test compounds and sRANKL and incubation was continued for 3 additional days.
The cells were washed twice with ice cold PBS and lysed in 150 μl of 0.2% triton x-100 in PBS. TRAP activity in cell lysates was determined by using TRAP solution from the kit (Sigma 387A1 kit), according to the manufacturers instructions. A 100 μl cell lysates was added to 100 μl of TRAP solution in 96 well plate and incubated at 37° C. for 1 hr. The absorbance was measured at 555 nm using a plate reader. The protein concentration was estimated using BCA reagent (Sigma) and the final activity was normalized for equal protein.
Inhibition of TRAP activity was determined by comparison of the TRAP activity in the presence of with and with out test compounds in sRANKL, activated osteoclasts. A minimum of two wells were used for each concentration.
Inhibition of TRAP activity was determined by comparison in the presence of with and with out test compounds in sRANKL activated osteoclasts. A minimum of two wells were used for each concentration. The basal TRAP activity levels with out sRANKL stimulation was subtracted from sRANKL stimulation to get the sRANKL induced TRAP activity and the activity was normalized to 100%. The percent activity of test compounds was measured in the presence of sRANKL and referred as sRANKL induced TRAP activity.
A minimum of three concentrations were used to determine median inhibitory concentration (IC50).

[4] = Homo sapiens, read-out: TNFa Stimulated MMP-13 average, Table 4, 20 ug/mL, SW1353, TNFα 10 ng/ml 24 h
[5] = Table 4, 20 ug/mL, SW1353, TNFα 10 ng/ml 24 h
[6] = Homo sapiens, read-out: TNFa Stimulated MMP-13 average, Table 5, 1 ug/mL, SW1353
[7] = Homo sapiens, read-out: TNFa Stimulated MMP-13 average, Table 5, 5 ug/mL, SW1353
[8] = Homo sapiens, read-out: TNFa Stimulated MMP-13 average, Table 5, 10 ug/mL, SW1353
[9] = Homo sapiens, read-out: TNFa Stimulated MMP-13 average, Table 5, 20 ug/mL, SW1353

Compound | activity at 20 µg/mL [2, 4] | % TRAP activity average (sRANKL induced TRAP activity) ([3]; 1 ug/mL test compound) | % TRAP activity average (sRANKL induced TRAP activity) ([3]; 5 ug/mL test compound) | % TRAP activity average (sRANKL induced TRAP activity) ([3]; 10 ug/mL test compound) | activity at 5 µg/mL [3] | activity at 10 µg/mL [3] | TNFa Stimulated MMP-13 average [2, 5] | also measured
COc1ccc2cc3[n+](cc2c1OC)CCc1cc2c(cc1-3)OCO2 [Berberine sulfate] |  |  |  |  |  |  |  | IC50 ([1]; Table 7B, single agents, read-out: Dm (median effect dose, TNFα induced MMP-13 expression)): 0.254 µg/mL; IC50 ([1]; text b137, single agents, read-out: IC50 (TNFα induced MMP-13 expression)): 0.254 µg/mL; Dose dependence of modulation of TNFα induced MMP-13 expression ([2]; Example 3, SW1353): dose dependently modulated; IC50 ([2]; Homo sapiens, SW1353, read-out: IC50 (TNFa induced MMP-13 expression)): 0.15 µg/mL; TNFa Stimulated % Activity average (MMP-13 expression) ([2]; 0.05 ug/mL, SW1353): 99%; TNFa Stimulated % Activity average (MMP-13 expression) ([2]; 0.1 ug/mL, SW1353): 50%; TNFa Stimulated % Activity average (MMP-13 expression) ([2]; 0.5 ug/mL, SW1353): 4%; TNFa Stimulated % Activity average (MMP-13 expression) ([2]; 1 ug/mL, SW1353): −1%
COc1ccc2cc3[n+](cc2c1OC)CCc1cc2c(cc1-3)OCO2 [Berberine, 7,8,13,13a-tetrahydro-9,10-dimethoxy-2,3-(methylenedioxy)-berbinium] | -39% | 68% | 15% | 7% | 4% | -8% |  | TNFa Stimulated MMP-13 n = 1 ([2]; Table 5, 1 ug/mL, SW1353): −1%; TNFa Stimulated MMP-13 n = 1 ([2]; Table 5, 5 ug/mL, SW1353): −4%; TNFa Stimulated MMP-13 n = 1 ([2]; Table 5, 10 ug/mL, SW1353): −4%; TNFa Stimulated MMP-13 n = 1 ([2]; Table 5, 20 ug/mL, SW1353): −4%
CC/C=C\C/C=C\C/C=C\C/C=C\C/C=C\C/C=C\CCC(=O)O [DHA] |  |  |  |  |  |  | 265% | % TRAP Activity average ([3]; 5 ug/mL): 120%; % TRAP Activity average ([3]; 10 ug/mL): 105%
C[C@]12CC[C@H](O)CC1=CC[C@@H]1[C@@H]2CC[C@]2(C)C(=O)CC[C@@H]12 [DHEA, reference compound] |  |  |  |  |  |  | −2% | Dose dependence of inhibition of TNFα induced MMP-13 expression ([2]; SW1353): dose dependently (20, 10, and 1 ug/ml) inhibited; TNFa Stimulated MMP-13 average ([2]; Table 5, 1 ug/mL, SW1353): 111%; TNFa Stimulated MMP-13 average ([2]; Table 5, 5 ug/mL, SW1353): 108%; TNFa Stimulated MMP-13 average ([2]; Table 5, 10 ug/mL, SW1353): 64%; TNFa Stimulated MMP-13 average ([2]; Table 5, 20 ug/mL, SW1353): 5%; % TRAP Activity average ([3]; 5 ug/mL): 46%; % TRAP Activity average ([3]; 10 ug/mL): 33%
O=c1c(-c2ccc(O)cc2)coc2cc(O)cc(O)c12 [Genistein] | 27% |  |  |  | 91% | 72% |  | 
CC1(C)C=Cc2c(ccc3c2OC[C@@H](c2ccc(O)cc2O)C3)O1 [Glabridin] | 79% |  |  |  | 82% | 75% |  | 
N[C@H]1C(O)O[C@H](CO)[C@@H](O)[C@@H]1O (stereo partly shown) [Glucosamine] | 77% | 179% | 183% | 269% | 75% | 48% |  | TNFa Stimulated MMP-13 n = 1 ([2]; Table 5, 1 ug/mL, SW1353): 126%; TNFa Stimulated MMP-13 n = 1 ([2]; Table 5, 5 ug/mL, SW1353): 137%; TNFa Stimulated MMP-13 n = 1 ([2]; Table 5, 10 ug/mL, SW1353): 107%; TNFa Stimulated MMP-13 n = 1 ([2]; Table 5, 20 ug/mL, SW1353): 105%
COc1ccc([C@@H]2CC(=O)c3c(O)cc(O[C@@H]4O[C@H](CO[C@@H]5O[C@@H](C)[C@H](O)[C@@H](O)[C@H]5O)[C@@H](O)[C@H](O)[C@H]4O)cc3O2)cc1O [Hesperidin] |  |  |  |  |  |  | 13% | % TRAP Activity average ([3]; 5 ug/mL): 81%; % TRAP Activity average ([3]; 10 ug/mL): 76%
CC(C)Oc1ccc2c(=O)c(-c3ccccc3)coc2c1 [Ipriflavone, reference compound] | -42% | 168% | 164% | 82% |  |  |  | Dose dependence of inhibition of TNFα induced MMP-13 expression ([2]; SW1353): dose dependently (20, 10, and 1 ug/ml) inhibited; activity at 1 µg/mL [2, 6]: 86%; activity at 5 µg/mL [2, 7]: 20%; activity at 10 µg/mL [2, 8]: 0%; activity at 20 µg/mL [2, 9]: 3%
CCCCC/C=C\C/C=C\CCCCCCCC(=O)O [Linoleic Acid] | 23% |  |  |  |  |  |  | 
CC1(C)CC[C@]2(C(=O)O)CC[C@]3(C)C(=CC[C@@H]4[C@@]5(C)CC[C@H](O)C(C)(C)[C@@H]5CC[C@]43C)[C@@H]2C1 [Oleanolic Acid] |  | 139% | 63% | 32% | 61% | 35% |  | activity at 10 µg/mL ([2]; Homo sapiens, read-out: TNFa Stimulated MMP-13 average, Table 4, 10 ug/mL, SW1353, TNFα 10 ng/ml 24 h): 17%; TNFa Stimulated MMP-13 n = 1 ([2]; Table 5, 1 ug/mL, SW1353): 95%; TNFa Stimulated MMP-13 n = 1 ([2]; Table 5, 5 ug/mL, SW1353): 38%; TNFa Stimulated MMP-13 n = 1 ([2]; Table 5, 10 ug/mL, SW1353): 43%; TNFa Stimulated MMP-13 n = 1 ([2]; Table 5, 20 ug/mL, SW1353): 26%
C/C=C1/[C@H](O[C@@H]2O[C@H](CO)[C@@H](O)[C@H](O)[C@H]2O)OC=C(C(=O)OC)[C@H]1CC(=O)OCCc1ccc(O)c(O)c1 [Oleuropein] | -31% |  |  |  | 82% | 81% |  | 
O=C(CCc1ccc(O)cc1)c1c(O)cc(O)cc1O[C@@H]1O[C@H](CO)[C@@H](O)[C@H](O)[C@H]1O [Phloridzin] | 77% |  |  |  | 103% | 150% |  | 
O=C([O-])CC(O)(CC(=O)[O-])C(=O)[O-].[K+].[K+].[K+] [Potassium Citrate] |  |  |  |  |  |  | 95% | 
O=c1c(O)c(-c2ccc(O)c(O)c2)oc2cc(O)cc(O)c12 [Quercetin] | -65% |  |  |  | 73% | 62% |  | 
Oc1ccc(C=Cc2cc(O)cc(O)c2)cc1 [Resveratrol] | -42% | 117% | 17% | 16% | 11% | 2% |  | Dose dependence of inhibition of TNFα induced MMP-13 expression ([2]; SW1353): dose dependently (20, 10, and 1 ug/ml) inhibited; activity at 1 µg/mL [2, 6]: 96%; activity at 5 µg/mL [2, 7]: 88%; activity at 10 µg/mL [2, 8]: 53%; activity at 20 µg/mL [2, 9]: 45%
C[C@@H]1O[C@@H](OC[C@H]2O[C@@H](Oc3c(-c4ccc(O)c(O)c4)oc4cc(O)cc(O)c4c3=O)[C@H](O)[C@@H](O)[C@@H]2O)[C@H](O)[C@H](O)[C@H]1O [Rutin] | -7% |  |  |  | 106% | 74% |  | 
O=C1O[C@H]([C@@H](O)CO)C(O)=C1O [Vitamin C] | 370% |  |  |  |  |  |  | 
CC(C)=CCC/C(C)=C/CC/C(C)=C/CC/C(C)=C/CC1=C(C)C(=O)c2ccccc2C1=O [Vitamin K2] |  |  |  |  |  |  | 56% | 
Conjugated Linoleic acid |  | 86% | 81% | 79% |  |  |  | 
Hyaluronic Acid |  | 122% | 130% | 111% |  |  | 105% | % TRAP Activity average ([3]; 5 ug/mL): 35%; % TRAP Activity average ([3]; 10 ug/mL): 2%
Inulin |  |  |  |  |  |  | 33% | % TRAP Activity average ([3]; 5 ug/mL): 87%; % TRAP Activity average ([3]; 10 ug/mL): 69%
